According to paper PMC7536268, “Increased Antimicrobial Activity of Colistin in Combination With Gamithromycin Against Pasteurella multocida in a Neutropenic Murine Lung Infection Model” (Frontiers in Microbiology, 2020):
Like-named read-outs stand apart in the source and are kept apart here. Where a SMILES comes first, the peptide text is derived from it. Bridges are numbered along the chain shown (N, C = ends). [ ]: non-standard residue; d: D form. The star is where a group is joined. X1 = CC[C@H](C)CCCCC(=O)*; Dab = NCC[C@H](N)C(=O)O

Assays:
[1] = tested on: Pasteurella multocida (D18, T5, and WJ11); experiment: In vitro time-kill assays; assay type: cell-based; settings: colistin alone 0.25-1 mg/L, 24 h, all strains (D18, T5, WJ11), inoculum ~5 × 10^6 CFU/mL
Description: In vitro time-kill assays were used to evaluate the effects of colistin alone and in combination with gamithromycin over 24 h. Three isolates of P. multocida (D18, T5, and WJ11) were tested. A P. multocida inoculum at ∼5 × 10^6 CFU/mL was treated with colistin alone at 0.25, 0.5, and 1 mg/L; gamithromycin alone at 0.125, 0.25, and 0.5 mg/L; and with colistin in combination with gamithromycin. At 0, 1, 2, 4, 6, 8, 12, and 24 h after incubation, 100-μL samples were taken from each tube for colony counting. A growth control without drug administration was included in all tests.

[2] = set-up: method as in Soon-Ee et al., 2015; settings: ref Soon-Ee et al., 2015; cited from earlier work
[3] = In vitro plasma protein binding, equilibrium dialysis; assay type: in vitro ADME; settings: 72 h at 4°C
Description: In vitro plasma protein-binding experiments for gamithromycin were conducted by adopting an equilibrium dialysis method for 72 h at 4°C. The corresponding unbound plasma PK parameters were obtained and used for the integration of PK and PD data.

[4] = tested on: Pasteurella multocida strains (D18, T5, and WJ11); experiment: PK/PD relationship analysis (inhibitory Emax model, plasma AUC/MIC, target doses); assay type: in vivo; settings: gamithromycin monotherapy; for Gamithromycin AUC/MIC required to reach 1-log10 kill / Gamithromycin AUC/MIC required to reach stasis: plasma AUC
Description: The relationship between the in vivo antimicrobial activity of gamithromycin alone or in combination with colistin and the ratio of plasma PK parameters to the MIC of gamithromycin was assessed. An inhibitory effect Emax model from the Phoenix WinNonlin identification module was used for analysis based on the equation: E = Emax − (Emax−E0) × Ce/(Ce + EC50), where E is the antimicrobial effect (i.e., the change in bacterial burden in CFU per lung), Emax is the change in log10 CFU/lung for control groups, […], Ce is the PK/PD index under analysis, and EC50 is the Ce value at 50% of E0.
Integration of PK and PD data is important for clinical drug administration ([Toutain et al., 2002]). Herein, PK values in plasma were used to calculate the PK/PD index, which was integrated with changes in bacteria log10 CFU/lung. Antimicrobials that achieve significant PAE values are generally described as concentration-dependent ([Jacobs, 2004]).

[5] = cattle, SC 6 mg/kg; ref Steeve et al., 2011; cited from earlier work
[6] = swine, SC 6 mg/kg; ref Wyns et al., 2014; cited from earlier work
P. multocida = tested on: P. multocida; set-up: method as in Benoit et al., 2011; settings: P. multocida with erm(E); ref Benoit et al., 2011; cited from earlier work
Excerpt: Bovine respiratory disease (BRD) associated with Mannheimia haemolytica, P. multocida, and Histophilus somni is one of the most economically important diseases that occur in feedlots, and the global losses are estimated at over $3 billion per year ([Watts and Sweeney, 2010]).

[7] = tested on: Pasteurella multocida strains; experiment: MIC by broth microdilution (CLSI); assay type: cell-based; settings: drug alone, broth microdilution, Mueller-Hinton broth, triplicate
Description: The susceptibility of the selected P. multocida isolates and the quality control isolate (ATCC 25922) to colistin, gamithromycin, cefquinome, enrofloxacin, tilmicosin, tylosin tartrate, and florfenicol alone was determined using the microdilution method in broth (conducted in triplicate) according to the guiding principles of the CLSI. Based on the action mechanism of each drug, the antimicrobial activity of colistin or cefquinome (drug A) in combination with gamithromycin, enrofloxacin, tilmicosin, tylosin tartrate, or florfenicol (drug B) was determined with the checkerboard method, according to the minimal inhibitory concentration (MIC) of each drug. Briefly, 50 μL of MH II broth was added to each well, and 50 μL of the indicated concentration of colistin or cefquinome was added into the first well of each line. This was followed by multiproportion dilution. Next, 50-μL samples of different concentrations of gamithromycin or the other drugs mentioned above were added to the dilution medium, and a 100 μL inoculum with a cell density of ∼1 × 10^6 colony-forming units (CFU)/mL was added to each well. The plates were then incubated at 37°C for 24 h. According to the EUCAST definitive document E.Def 1.2 ([Mccullough, 2010]), the fractional inhibitory concentration (FIC) index for combined administrations was defined as the sum of the FIC of drug A and the FIC of drug B, where FIC is the MIC of the drug combined with other drugs, divided by the MIC of the drug alone.

[8] = strain D18, lungs of mice, n = 4
[9] = strain T5, lungs of mice, n = 4
[10] = strain WJ11, lungs of mice, n = 4

CC[C@H](C)CCCCC(=O)N[C@@H](CCN)C(=O)N[C@H](C(=O)N[C@@H](CCN)C(=O)N[C@H]1CCNC(=O)[C@H]([C@@H](C)O)NC(=O)[C@H](CCN)NC(=O)[C@H](CCN)NC(=O)[C@H](CC(C)C)NC(=O)[C@@H](CC(C)C)NC(=O)[C@H](CCN)NC1=O)[C@@H](C)O [Colistin] (X1-[Dab]T[Dab][Dab][Dab][dL]L[Dab][Dab]T; lactam 4-C)
time-kill outcome [1]: incapable of controlling bacterial growth | unbound extent in plasma [2]: 8.4%

CCCN1C[C@H](C)[C@@H](O)[C@](C)(O)[C@@H](CC)OC(=O)[C@H](C)[C@@H](O[C@H]2C[C@@](C)(OC)[C@@H](O)[C@H](C)O2)[C@H](C)[C@@H](O[C@@H]2O[C@H](C)C[C@H](N(C)C)[C@H]2O)[C@](C)(O)C[C@H]1C [Gamithromycin]
plasma protein binding extent [3]: 13.83% | Gamithromycin dose required to reach 1-log10 kill ([4]; Mean ± SD of D18, T5, WJ11, SD): 67.11 ± 6.01 mg/kg | Gamithromycin dose required to reach stasis ([4]; Mean ± SD of D18, T5, WJ11, SD): 18.43 ± 3.10 mg/kg | Gamithromycin dose required to reach 1-log10 kill [4, 8]: 65.32 mg/kg | Gamithromycin dose required to reach stasis [4, 8]: 17.99 mg/kg | Gamithromycin AUC/MIC required to reach 1-log10 kill ([4]; strain D18, n = 4): 36.74 | Gamithromycin AUC/MIC required to reach stasis ([4]; strain D18, n = 4): 10.33 | Gamithromycin dose required to reach 1-log10 kill [4, 9]: 73.80 mg/kg | Gamithromycin dose required to reach stasis [4, 9]: 21.73 mg/kg | Gamithromycin AUC/MIC required to reach 1-log10 kill ([4]; strain T5, n = 4): 41.51 | Gamithromycin AUC/MIC required to reach stasis ([4]; strain T5, n = 4): 12.47 | Gamithromycin dose required to reach 1-log10 kill [4, 10]: 62.19 mg/kg | Gamithromycin dose required to reach stasis [4, 10]: 15.58 mg/kg | Gamithromycin AUC/MIC required to reach 1-log10 kill ([4]; strain WJ11, n = 4): 34.98 | Gamithromycin AUC/MIC required to reach stasis ([4]; strain WJ11, n = 4): 8.11 | AUClast [5]: 7.82 mg⋅h/L | AUClast [6]: 3.48 mg⋅h/L | MIC (P. multocida): ≥ 512 µg/mL | MIC ([7]; strain CVCC 444): 0.5 µg/mL | MIC ([7]; strain D18): 0.5 µg/mL | MIC ([7]; strain PmP2 (pig)): 0.5 µg/mL | MIC ([7]; strain PmP17 (pig)): 0.5 µg/mL | MIC ([7]; strain T5): 0.5 µg/mL | MIC ([7]; strain WJ11): 0.5 µg/mL | MIC ([7]; strain WN71): 0.5 µg/mL | MIC ([7]; strain WW81): 0.5 µg/mL | MIC ([7]; strain XX12): 0.5 µg/mL
